Laboratory results from paper PMC7144195, “Synthesis, antitumor activity, and molecular docking study of 2-cyclopentyloxyanisole derivatives: mechanistic study of enzyme inhibition” (Journal of Enzyme Inhibition and Medicinal Chemistry, 2020).
Where two headings read alike, the source gives them in different places.

Experiments:
[1] = tested on: HCT-116 cell line; test: In vitro antitumor MTT assay, HCT-116; assay type: cell-based
Experimental: (§3) The antitumor activity was performed by using the tetrazolium salt 3-(4,5-dimethyl-2-thiazolyl)-2,5-diphenyl-2H-tetrazolium bromide (MTT) assay in accordance with an established method[39].

[2] = tested on: MCF-7 cell line; test: In vitro antitumor MTT assay, MCF-7; assay type: cell-based
Experimental: as §3

[3] = tested on: TNF-α; test: TNF-α inhibition assay (human-specific sandwich ELISA); assay type: biochemical; conditions: read-out: IC50 (µM) TNFα inhibition
Experimental: The concentration of TNF-α was measured by human-specific sandwich enzyme-linked immunosorbent assay (ELISA) in accordance with the manufacturer’s instructions (no. 589201, Cayman Chemical, Ann Arbour, MI)[43]^,[44].
TNF-α has been reported as a target for cancer treatment; presently, TNF antagonists are under clinical investigation in phase I and II trials as single agents for cancer therapy. […].

[4] = tested on: HePG2 cell line; test: In vitro antitumor MTT assay, HePG2; assay type: cell-based
Experimental: (§1) The antitumor activity was performed by using the tetrazolium salt 3-(4,5-dimethyl-2-thiazolyl)-2,5-diphenyl-2H-tetrazolium bromide (MTT) assay in accordance with an established method.
(§2) Compounds 3a–c, 4a,b, 5a,b, 6a,b, 7a–e, 8, 9a–c, 10, 11, 12a–c, 13, and 14 were screened for their in vitro antitumor activity by using the standard 3-(4,5-dimethylthiazol-2-yl)-2,5-diphenyltetrazolium bromide (MTT) assay against five human cancers: HePG2, HCT-116, MCF-7, PC3, and HeLa cell lines. […].

[5] = tested on: PC3 cell line; test: In vitro antitumor MTT assay, PC3; assay type: cell-based
Experimental: as §3

[6] = tested on: HeLa cell line; test: In vitro antitumor MTT assay, HeLa; assay type: cell-based
Experimental: as §1, §2

[7] = tested on: HePG2, HCT-116, MCF-7, PC3, and HeLa cell lines; test: In vitro antitumor MTT assay, panel of five human cancer cell lines (text summaries); assay type: cell-based; conditions: read-out: IC50, antitumor activity, range over the tested cancer cell lines
Experimental: as §1, §2

[8] = biological target: PDE4B (Homo sapiens, UniProt Q07343); test: PDE4B inhibition assay; assay type: biochemical; conditions: read-out: IC50 (µM) PDE-4B inhibition
[9] = biological target: T1, COX-2 (Ovis aries, UniProt P79208); test: Colorimetric COX-2 inhibition assay (Cayman kit 560101); assay type: biochemical; conditions: means of three determinations
T1 construct: purchased Cayman Chemical 560101
T1 sequence (P79208 17-603): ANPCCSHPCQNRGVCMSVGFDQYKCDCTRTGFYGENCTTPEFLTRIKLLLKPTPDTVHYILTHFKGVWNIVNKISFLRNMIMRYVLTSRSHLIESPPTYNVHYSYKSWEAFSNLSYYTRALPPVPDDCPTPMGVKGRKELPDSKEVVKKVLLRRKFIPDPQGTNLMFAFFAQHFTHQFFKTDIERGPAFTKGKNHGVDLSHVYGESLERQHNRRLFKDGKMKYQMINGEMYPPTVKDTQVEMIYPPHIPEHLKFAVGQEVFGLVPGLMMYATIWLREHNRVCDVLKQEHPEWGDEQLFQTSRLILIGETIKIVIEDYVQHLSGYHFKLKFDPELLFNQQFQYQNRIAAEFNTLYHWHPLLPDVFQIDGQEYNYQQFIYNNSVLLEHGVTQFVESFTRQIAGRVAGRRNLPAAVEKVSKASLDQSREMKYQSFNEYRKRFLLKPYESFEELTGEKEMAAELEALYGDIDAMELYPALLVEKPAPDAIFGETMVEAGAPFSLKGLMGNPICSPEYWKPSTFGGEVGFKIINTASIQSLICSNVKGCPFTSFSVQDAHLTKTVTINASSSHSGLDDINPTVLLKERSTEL

[10] = Homo sapiens, HCT-116; read-out: IC50 (µM) HCT-116
[11] = Homo sapiens, MCF7; read-out: IC50 (µM) MCF-7
[12] = Homo sapiens, HepG2; read-out: IC50 (µM) HePG2
[13] = Homo sapiens, PC-3; read-out: IC50 (µM) PC3
[14] = Homo sapiens; read-out: IC50 (µM) HeLa
[15] = Homo sapiens, range over (all or some of) HePG2, HCT-116, MCF-7, PC3, HeLa
[16] = range over (all or some of) HePG2, HCT-116, MCF-7, PC3, HeLa

Chain of PDE4B (Q07343 whole entry): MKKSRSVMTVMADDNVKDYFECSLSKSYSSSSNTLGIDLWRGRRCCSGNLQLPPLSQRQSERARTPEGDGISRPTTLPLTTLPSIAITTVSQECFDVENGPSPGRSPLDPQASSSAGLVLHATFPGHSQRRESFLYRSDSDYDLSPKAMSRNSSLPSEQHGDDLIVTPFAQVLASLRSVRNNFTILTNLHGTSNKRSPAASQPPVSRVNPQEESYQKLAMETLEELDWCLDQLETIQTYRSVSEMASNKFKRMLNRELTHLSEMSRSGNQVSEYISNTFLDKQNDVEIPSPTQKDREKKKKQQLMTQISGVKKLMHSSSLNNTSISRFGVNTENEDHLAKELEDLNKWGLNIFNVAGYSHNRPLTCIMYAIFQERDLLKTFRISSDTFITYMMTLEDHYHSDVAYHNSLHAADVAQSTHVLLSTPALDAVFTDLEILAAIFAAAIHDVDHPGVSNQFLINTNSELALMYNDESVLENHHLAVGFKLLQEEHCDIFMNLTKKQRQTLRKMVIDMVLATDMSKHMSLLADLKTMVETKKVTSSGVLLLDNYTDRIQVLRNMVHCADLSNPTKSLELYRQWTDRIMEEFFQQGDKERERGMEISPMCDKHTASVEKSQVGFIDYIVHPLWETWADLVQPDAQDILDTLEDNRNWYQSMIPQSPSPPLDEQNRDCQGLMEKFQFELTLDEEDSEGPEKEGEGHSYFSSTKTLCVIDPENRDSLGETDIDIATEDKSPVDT

Compound | IC50 ([1]; Homo sapiens, HCT-116, read-out: IC50 (µM) HCT-116) [µM] | IC50 ([2]; Homo sapiens, MCF7, read-out: IC50 (µM) MCF-7) [µM] | IC50 [3] [µM] | IC50 ([4]; Homo sapiens, HepG2, read-out: IC50 (µM) HePG2) [µM] | IC50 ([5]; Homo sapiens, PC-3, read-out: IC50 (µM) PC3) [µM] | IC50 ([6]; Homo sapiens, read-out: IC50 (µM) HeLa) [µM] | IC50 ([7]; Homo sapiens) [µM] | IC50 [1, 10] [µM] | IC50 [2, 11] [µM] | melting point [°C] | IC50 [8] [µM] | IC50 [4, 12] [µM] | IC50 [9] [µM] | IC50 [5, 13] [µM] | IC50 [6, 14] [µM] | IC50 [7, 15] [µM] | IC50 [7, 16] [µM]
Cc1ccc(-c2cc(C(F)(F)F)nn2-c2ccc(S(N)(=O)=O)cc2)cc1 [Celecoxib, celecoxib, reference compound] | 29.5 ± 2.1 | 31.3 ± 2.5 | 6.44 | 25.6 ± 2.3 | 30.7 ± 2.7 | 36.1 ± 2.8 | 25.6 to 36.1 | – | – | – | – | – | – | – | – | – | –
COc1ccc(C=C2CN(C)CCC2=O)cc1OC1CCCC1 [Compound 4a, 3-(3-(Cyclopentyloxy)-4-methoxybenzylidene)-1-methylpiperidin-4-one] | – | – | 2.01 | – | – | – | – | 4.38 ± 0.4 | 5.13 ± 0.3 | 253 to 255 | 5.62 | 6.04 ± 0.5 | 3.34 | 9.18 ± 0.8 | 7.24 ± 0.7 | 4.38 to 22.9 | 4.38 to 9.18
CCN1CCC(=O)C(=Cc2ccc(OC)c(OC3CCCC3)c2)C1 [Compound 4b, 3-(3-(Cyclopentyloxy)-4-methoxybenzylidene)-1-ethylpiperidin-4-one] | – | – | 17.7 | – | – | – | – | 9.48 ± 0.8 | 7.18 ± 0.8 | 249 to 251 | 11.6 | 11 ± 1.1 | 1.08 | 14.3 ± 1.2 | 8.56 ± 0.9 | 4.38 to 22.9 | 7.18 to 14.3
COc1ccc(-c2nc3c4ccccc4c4ccccc4c3n2-c2ccccc2)cc1OC1CCCC1 [Compound 7b, 2-(3-(Cyclopentyloxy)-4-methoxyphenyl)-1-phenyl-1H-phenanthro[9,10-d]imidazole] | – | – | 13.9 | – | – | – | – | 19.7 ± 1.4 | 11.8 ± 1.3 | 295 to 297 | 5.65 | 13.7 ± 1.2 | 24 | 22.9 ± 1.9 | 17.2 ± 1.5 | – | 11.8 to 22.9
COc1ccc(-c2[nH]c(=S)[nH]c(=O)c2C#N)cc1OC1CCCC1 [Compound 13, 6-(3-(cyclopentyloxy)-4-methoxyphenyl)-4-oxo-2-thioxo-1,2,3,4-tetrahydropyrimidine-5-carbonitrile] | – | – | 6.72 | – | – | – | – | 7.66 ± 0.6 | 6.93 ± 0.5 | – | 3.98 | 8.71 ± 0.7 | 1.88 | 11.5 ± 1.1 | 5.86 ± 0.6 | 5.86 to 20.1 | –
